Assay results from patent publication US20240139185A1, “COMPOUNDS THAT PARTICIPATE IN COOPERATIVE BINDING AND USES THEREOF” (Revolution Medicines, Inc., priority 2018, published 2024).
pEC50, pIC50, pKd: −log10 of the molar value.

Tests used:
[1] = target: T1, BRAF-GTP-KRAS-G12C complex (Homo sapiens, UniProt P01116+P62937, G12C); assay: KRAS-BRAF complex disruption through competition with CYPA-compound by TR-FRET; conditions: biochemical BRAF-KRAS G12C-GTP disruption assay EC50, with CYPA
T1 construct: 50 nM of His6-KRas G12C-GTP (1-169); 500 nM of tagless CypA (1-165)
Method in brief: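 His6-KRAS G12C-GTP (1-169, 50 nM) with tagless CypA (1-165, 500 nM) was incubated with compound for 3 h at room temperature in pH 7.3 Hepes/NaCl/MgCl2 buffer containing GST-BRAF RBD. Anti-His Eu (10 nM) and anti-GST APC (50 nM) were then added for 1.5 h, and the 665/615 nm TR-FRET ratio was read. EC50 from 4-parameter fit; for specificity, wild-type KRAS replaced G12C, and CypA was omitted to test presenter dependence.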

[2] = target: cyclophilin A (CYPA) (Homo sapiens, UniProt P62937); assay: CYPA-compound binary complex formation by SPR; conditions: read-out: CYPA Binding Affinity
Method in brief: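 CypA-Avi captured on a Biotin CAPture chip (4 μg/ml), reference flow cell subtracted. Compounds injected as 10-point 2-fold dilutions from 50 μM in HBS-P+ pH7.4 with 2% DMSO; 60 s association and 60 s dissociation, solvent-corrected. Affinity obtained by steady-state fitting.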

[3] = tested on: pERK in H358 cells; assay: pERK inhibition in H358 cells; format: cell-based, human; conditions: 4 hours treatment, read-out: Cellular pERK inhibition
Description: H358 cells (5500 cells) derived from a human lung cancer were plated in a 96 well plate in media (100 uL, RPMI with 10% FBS). After 24 hours, cells were treated for 4 hours with compound or DMSO. Cells were washed twice with room temperature TBS (200 uL) and fixed for 20 minutes with 4% paraformaldehyde diluted with TBS (150 uL). Cells were washed four times for five minutes with 0.1% TritonX/TBS (150 uL) to permeabilize the membrane. Cells were incubated with TBS blocking buffer (100 uL) at room temperature for 60 minutes. Primary antibody (Phospho-p44/42 MAPK (Erk1/2) (Thr202/Tyr204) (D13.14.4E) XP® Rabbit mAb #4370, Cell Signaling Technology; 1:200) was added, and the cells were incubated overnight at 4 C. The cells were washed four times for five minutes with 0.1% Tween 20/TBS (150 uL). Secondary antibody (IRDye® 800CW Goat-Anti-Rabbit IgG, Li-Cor Biosciences; 1:1000) and DRAQ5™ (Invitrogen; 1:2000) was added, and the cells were incubated for 1 hour at room temperature. The cells were washed four times for five minutes with 0.1% Tween 20/TBS (150 uL) and scanned using the LICOR (700 and 800 nm).

SMILES	pEC50 [1]	pKd [2]	pIC50 [3]
C=CC(=O)N1CCC(C(=O)N(C)C(C(=O)NC2Cc3cc(O)cc(c3)-c3ccc4c(c3)c(cn4-c3cc(COC)ccc3C#N)CC(C)(C)COC(=O)C3CCCN(N3)C2=O)C(C)C)C1 (stereo not drawn) [Compound 393]	5.30 to 6.30	4.82 to 5.30	5.00 to 6.00
C=CC(=O)N1CCN([C@H](C(=O)N[C@H]2Cc3cc(O)cc(c3)-c3ccc4cnn(c4c3)CC(C)(C)COC(=O)[C@@H]3CCCN(N3)C2=O)C(C)C)C1=O [Compound 199]	5.30 to 6.30	4.82 to 5.30	< 5.00
C=CC(=O)N1CCC(C(=O)N(C)C(C(=O)NC2Cc3cc(O)cc(c3)-c3ccc4cc(-c5ccccc5COC)n(c4c3)CC(C)(C)COC(=O)C3CCCN(N3)C2=O)C(C)C)C1 (stereo not drawn) [Compound 90]	5.30 to 6.30	4.82 to 5.30	≥ 6.00
CC1COC(=O)[C@@H]2CCCN(N2)C(=O)[C@@H](NC(=O)[C@H](C(C)C)N(C)C(=O)C2CN(C(=O)CCl)C2)Cc2cc(O)cc(c2)-c2ccc3c(c2)N(CCO3)C1 (single isomer, unassigned) [Compound 183]	5.30 to 6.30	4.82 to 5.30	5.00 to 6.00
CC(C)[C@@H](C(=O)N[C@H]1Cc2cc(O)cc(c2)-c2ccc3c(C(C)(C)C#N)cn(c3c2)CC(CO)COC(=O)[C@@H]2CCCN(N2)C1=O)N(C)C(=O)C1CN(C(=O)CCl)C1 (single isomer, unassigned) [Compound 21]	5.30 to 6.30	< 4.82	< 5.00
CC#CC(=O)N1CC(C(=O)N(C)[C@H](C(=O)N[C@H]2Cc3cc(O)cc(c3)-c3ccc4c(c3)n(c(=O)n4C)CC(C)(C)COC(=O)[C@@H]3CCCN(N3)C2=O)C(C)C)C1 [Compound 190]	5.30 to 6.30	≥ 5.30	< 5.00
CC(C)[C@@H](C(=O)N[C@H]1Cc2cc(O)cc(c2)-c2ccc3c(C(F)F)nn(c3c2)C[C@H](C)COC(=O)[C@@H]2CCCN(N2)C1=O)N(C)C(=O)C1CN(C(=O)CCl)C1 [Compound 202]	≥ 6.30	≥ 5.30	5.00 to 6.00
CCc1c(-c2ccccc2OC)n2c3cc(ccc13)-c1cc(O)cc(c1)C[C@H](NC(=O)[C@H](C(C)C)N(C)C(=O)C1CN(C(=O)CCl)C1)C(=O)N1CCC[C@H](N1)C(=O)OC[C@@H](C)C2 [Compound 86]	≥ 6.30	< 4.82	≥ 6.00
C=CC(=O)N1CCC1C(=O)N(C)C(C(=O)NC1Cc2cc(O)cc(c2)-c2ccc3c(C(F)F)nn(c3c2)CC(C)COC(=O)C2CCCN(N2)C1=O)C(C)C (stereo not drawn) [Compound 203]	< 5.30	< 4.82	< 5.00
Cc1cnn(C)c1-c1cn2c3cc(ccc13)-c1cc(O)cc(c1)C[C@H](NC(=O)[C@H](C(C)C)N(C)C(=O)C1CN(C(=O)CCl)C1)C(=O)N1CCC[C@H](N1)C(=O)OCC(C)(C)C2 [Compound 240]	≥ 6.30	4.82 to 5.30	5.00 to 6.00
CC1COC(=O)[C@@H]2CCCN(N2)C(=O)[C@@H](NC(=O)[C@H](C(C)C)N(C)C(=O)C2CN(C(=O)CCl)C2)Cc2cc(O)cc(c2)-c2ccc3c(S(C)(=O)=O)cn(c3c2)C1 (single isomer, unassigned) [Compound 111]	≥ 6.30	4.82 to 5.30	< 5.00
COc1ccccc1-c1cn2c3cc(ccc13)-c1cc(O)cc(c1)CC(NC(=O)C(C(C)C)N(C)C(=O)C1CN(C(=O)CCl)C1)C(=O)N1CCCC(N1)C(=O)OCC(C)C2 (stereo not drawn) [Compound 48]	≥ 6.30	4.82 to 5.30	5.00 to 6.00
C=CC(=O)N1CCC(C(=O)N(C)C(C(=O)NC2Cc3cc(O)cc(c3)-c3ccc4c(c3)N(CC(C)(C)COC(=O)C3CCCN(N3)C2=O)CC4(C)COC)C2CCCC2)C1 (stereo not drawn) [Compound 398]	5.30 to 6.30	≥ 5.30	≥ 6.00
CC(C)[C@@H](C(=O)N[C@H]1Cc2cc(O)cc(n2)-c2ccc3c(C(C)(C)C#N)cn(c3c2)C[C@H](C)CNC(=O)[C@@H]2CCCN(N2)C1=O)N(C)C(=O)C1CN(C(=O)CCl)C1 [Compound 60]	< 5.30	4.82 to 5.30	< 5.00
CC(C)[C@@H](C(=O)N[C@H]1Cc2cc(O)cc(c2)-c2ccc3c(C(C#N)C4CC4)cn(c3c2)C[C@H](C)COC(=O)[C@@H]2CCCN(N2)C1=O)N(C)C(=O)C1CN(C(=O)CCl)C1 (stereo partly drawn) [Compound 78]	≥ 6.30	4.82 to 5.30	5.00 to 6.00
CCN1CCC(=O)N2C[C@H](C)COC(=O)[C@@H]3CCCN(N3)C(=O)[C@@H](NC(=O)[C@H](C(C)C)N(C)C(=O)C3CN(C(=O)CCl)C3)Cc3cc(O)cc(c3)-c3ccc1c2c3 [Compound 186]	< 5.30	4.82 to 5.30	< 5.00
CC(C)[C@@H](C(=O)N[C@H]1Cc2cc(O)cc(c2)-c2ccc3c(C(C)(C)C#N)cn(c3c2)CC(C)(C)COC(=O)[C@@H]2CCCN(N2)C1=O)N(C)C(=O)C1(F)CN(C(=O)[C@@H](C)Cl)C1 [Compound 35]	< 5.30	4.82 to 5.30	< 5.00
C=CC(=O)N1CCC(C(=O)N(C)C(C(=O)NC2Cc3cc(O)cc(c3)-c3ccc4c(c3)c(cn4C(C#N)(CC)CC)CC(C)(C)COC(=O)C3CCCN(N3)C2=O)C(C)CC)C1 (stereo not drawn) [Compound 405]	5.30 to 6.30	4.82 to 5.30	≥ 6.00

Second part, the compound after the results:

pEC50 [1]	pKd [2]	pIC50 [3]	SMILES
≥ 6.30	≥ 5.30	< 5.00	CNC(=O)c1cc2ccc3cc2n1CC(C)COC(=O)C1CCCN(N1)C(=O)C(NC(=O)C(C(C)C)N(C)C(=O)C1CN(C(=O)CCl)C1)Cc1cc(O)cc-3c1 (stereo not drawn) [Compound 115]
≥ 6.30	< 4.82	5.00 to 6.00	CCN(C(=O)C1CN(C(=O)CCl)C1)[C@H](C(=O)N[C@H]1Cc2cc(O)cc(c2)-c2ccc3c(C(C)(C)C#N)cn(c3c2)CC(C)(C)COC(=O)[C@@H]2CCCN(N2)C1=O)C(C)C [Compound 65]
≥ 6.30	≥ 5.30	5.00 to 6.00	CC(C)[C@@H](C(=O)N[C@H]1Cc2cc(O)cc(c2)-c2ccc3c(-c4ccnn4C)cn(c3c2)CC(C)(C)COC(=O)[C@@H]2CCCN(N2)C1=O)N(C)C(=O)C1CN(C(=O)CCl)C1 [Compound 239]
≥ 6.30	< 4.82	< 5.00	CC[C@@H](C(=O)N[C@H]1Cc2cc(O)cc(c2)-c2ccc3c(C(C)(C)C#N)cn(c3c2)CC(C)(C)COC(=O)[C@@H]2CCCN(N2)C1=O)N(C)C(=O)C1CN(C(=O)CCl)C1 [Compound 56]
≥ 6.30	< 4.82	5.00 to 6.00	CC(C)[C@@H](C(=O)N[C@H]1Cc2cc(O)cc(c2)-c2ccc3c(C4CCC4)cn(c3c2)C[C@H](C)COC(=O)[C@@H]2CCCN(N2)C1=O)N(C)C(=O)C1CN(C(=O)CCl)C1 [Compound 118]
≥ 6.30	4.82 to 5.30	5.00 to 6.00	CC(C)C(C(=O)NC1Cc2cc(O)cc(c2)-c2ccc3c(C(C)(C)C#N)cn(c3c2)CC(C)(C)COC(=O)C2CCCN(N2)C1=O)N1CCC2(CN(C(=O)CCl)C2)C1=O (stereo not drawn) [Compound 44]
≥ 6.30	< 4.82	≥ 6.00	CC(C)[C@@H](C(=O)N[C@H]1Cc2cc(O)cc(c2)-c2ccc3c(Cl)nn(c3c2)CC(C)(C)COC(=O)[C@@H]2CCCN(N2)C1=O)N(C)C(=O)C1CN(C(=O)CCl)C1 [Compound 201]
≥ 6.30	4.82 to 5.30	≥ 6.00	CC1COC(=O)C2CCCN(N2)C(=O)C(NC(=O)C(C(C)C)N(C)C(=O)C2CN(C(=O)CCl)C2)Cc2cc(O)cc(c2)-c2ccc3c4c(n(c3c2)C1)COCC4(C)C#N (mixture of isomers) [Compound 62]
≥ 6.30	≥ 5.30	5.00 to 6.00	CC1COC(=O)C2CCCN(N2)C(=O)C(NC(=O)C(C(C)C)N(C)C(=O)C2CN(C(=O)CCl)C2)Cc2cc(O)cc(c2)-c2ccc3c(c2)N(C1)CC3(C)CCC#N (mixture of isomers) [Compound 225]
≥ 6.30	4.82 to 5.30	≥ 6.00	COCC1COC(=O)C2CCCN(N2)C(=O)C(NC(=O)C(C(C)C)N(C)C(=O)C2CN(C(=O)CCl)C2)Cc2cc(O)cc(c2)-c2ccc3c(C(C)(C)C#N)cn(c3c2)C1 (single isomer, unassigned) [Compound 24]
≥ 6.30	4.82 to 5.30	5.00 to 6.00	CC(C)C1COC(=O)[C@@H]2CCCN(N2)C(=O)[C@@H](NC(=O)[C@H](C(C)C)N(C)C(=O)C2CN(C(=O)CCl)C2)Cc2cc(O)cc(c2)-c2ccc3c(C(C)(C)C#N)cn(c3c2)C1 (stereo partly drawn) [Compound 246]
≥ 6.30	4.82 to 5.30	< 5.00	CC(C)[C@@H](C(=O)N[C@H]1Cc2cc(O)cc(c2)-c2ccc3c(S(C)(=O)=O)cn(c3c2)CCCOC(=O)[C@@H]2CCCN(N2)C1=O)N(C)C(=O)C1CN(C(=O)CCl)C1 [Compound 102]
